Assay results published in patent publication US6008372A, “Substituted dinaphthylmethyl and diheteroarylmethylacetyl histidine inhibitors of protein farnesyltransferase” (Warner-Lambert Company, priority 1998, dated 1999).
Like-named read-outs stand apart in the source and are kept apart here.

Biological target: T1, rat brain farnesyl protein transferase (Rattus norvegicus, UniProt Q02293+Q04631)
T1 construct: 40-fold purified rat brain farnesyl protein transferase; from tissue; host or cells: rat brain
Assay: Protein:farnesyltransferase (PFT/FPT) inhibitory activity assay
Type: biochemical

[1] = Hepes (without 5 mM phosphate), read-out: Farnesyl Protein Transferase Inhibition, Hepes, IC50
[2] = Hepes/5 mM PO4^-3, pH 7.4, read-out: Farnesyl Protein Transferase Inhibition, Hepes/5 mM PO4^-3, IC50

| SMILES | IC50 [1] [µM] | IC50 [2] [µM] |
| --- | --- | --- |
| CCC(C)OC(=O)[C@H](Cc1c[nH]cn1)NC(=O)C(Cc1cccc2ccccc12)Cc1cccc2ccccc12 (mixture of isomers) [Example 14, (S)-3-(1H-Imidazol-4-yl)-2-(3-naphthalen-1-yl-2-naphthalen-1-ylmethyl-propionylamino)-propionic acid, (±)-sec-butyl ester] | 0.82 | 0.54 |
| CC(C#N)OC(=O)[C@H](Cc1c[nH]cn1)NC(=O)C(Cc1cccc2ccccc12)Cc1cccc2ccccc12 (mixture of isomers) [Example 61, (S)-3-(1H-Imidazol-4-yl)-2-(3-naphthalen-1-yl-2-naphthalen-1-ylmethyl-propionylamino)-propionic acid, (±)-1-cyano-ethyl ester] | 0.64 | 0.61 |
| O=C(N[C@@H](Cc1c[nH]cn1)C(=O)O)C(Cc1cccc2ccccc12)Cc1cccc2ccccc12 [Example 3, (S)-3-(1H-Imidazol-4-yl)-2-(3-naphthalen-1-yl-2-naphthalen-1-ylmethyl-propionylamino)-propionic acid] | 1 | 2.3 |
| O=C(N[C@H](Cc1c[nH]cn1)C(=O)O)C(Cc1cccc2ccccc12)Cc1cccc2ccccc12 [Example 4, (R)-3-(1H-Imidazol-4-yl)-2-(3-naphthalen-1-yl-2-naphthalen-1-ylmethyl-propionylamino)-propionic acid] | 6.1 | 19.5 |
| O=C(N[C@@H](Cc1c[nH]cn1)C(=O)OCc1ccccc1)C(Cc1cccc2ccccc12)Cc1cccc2ccccc12 [Example 10, (S)-3-(1H-Imidazol-4-yl)-2-(3-naphthalen-1-yl-2-naphthalen-1-ylmethyl-propionylamino)-propionic acid, benzyl ester] | 4.2 | 2.9 |
| O=C(N[C@@H](Cc1c[nH]cn1)C(=O)OC1CCCCC1)C(Cc1cccc2ccccc12)Cc1cccc2ccccc12 [Example 11, (S)-3-(1H-Imidazol-4-yl)-2-(3-naphthalen-1-yl-2-naphthalen-1-ylmethyl-propionylamino)-propionic acid, cyclohexyl ester] | 20 | 14 |
| CCCCc1nc(COC(=O)[C@H](Cc2c[nH]cn2)NC(=O)C(Cc2cccc3ccccc23)Cc2cccc3ccccc23)c[nH]1 [Example 13, (S)-3-(1H-Imidazol-4-yl)-2-(3-naphthalen-1-yl-2-naphthalen-1-ylmethyl-propionylamino)-propionic acid, 2-butyl-1H-imidazol-4-ylmethyl ester] | 2.1 | 1.7 |

Further lines, results first:

| IC50 [1] [µM] | IC50 [2] [µM] | SMILES |
| --- | --- | --- |
| 12 | 10 | COC(=O)[C@@H](Cc1c[nH]cn1)NC(=O)C(Cc1cccc2ccccc12)Cc1cccc2ccccc12 [Example 2, (R)-3-(1H-Imidazol-4-yl)-2-(3-naphthalen-1-yl-2-naphthalen-1-ylmethyl-propionylamino)-propionic acid, methyl ester] |
| 1.3 | 1.1 | CCCCOC(=O)[C@H](Cc1c[nH]cn1)NC(=O)C(Cc1cccc2ccccc12)Cc1cccc2ccccc12 [Example 9, (S)-3-(1H-Imidazol-4-yl)-2-(3-naphthalen-1-yl-2-naphthalen-1-ylmethyl-propionylamino)-propionic acid, butyl ester] |
| 0.4 | 0.25 | O=C(N[C@@H](Cc1c[nH]cn1)C(=O)OCC1CC1)C(Cc1cccc2ccccc12)Cc1cccc2ccccc12 [Example 12, (S)-3-(1H-Imidazol-4-yl)-2-(3-naphthalen-1-yl-2-naphthalen-1-ylmethyl-propionylamino)-propionic acid, cyclopropylmethyl ester] |
| 0.5 | 0.59 | C#CCOC(=O)[C@H](Cc1c[nH]cn1)NC(=O)C(Cc1cccc2ccccc12)Cc1cccc2ccccc12 [Example 16, (S)-3-(1H-Imidazol-4-yl)-2-(3-naphthalen-1-yl-2-naphthalen-1-ylmethyl-propionylamino)-propionic acid, prop-2-ynyl ester] |
